Experimental data taken from US10538555B2, “Macrocyclic inhibitors of the PD-1/PD-L1 and CD80(B7-1)/PD-L1 protein/protein interactions” (BRISTOL-MYERS SQUIBB COMPANY, priority 2014, dated 2020).
Where a SMILES comes first, the peptide text is derived from it. Bridges are numbered along the chain shown (N, C = ends). [ ]: non-standard residue; d: D form. ξ: configuration not given here. Trp(βS-Me) = C[C@@H](c1c[nH]c2ccccc12)[C@H](N)C(=O)O; Phe(3,4,5-F3) = N[C@@H](Cc1cc(F)c(F)c(F)c1)C(=O)O; Phe(4-F) = N[C@@H](Cc1ccc(F)cc1)C(=O)O; Pro(4R-NH2) = N[C@H]1CN[C@H](C(=O)O)C1; d(cisHyp) = O=C(O)[C@H]1C[C@@H](O)CN1; Bta = N[C@@H](Cc1csc2ccccc12)C(=O)O; Hyp = O=C(O)[C@@H]1C[C@@H](O)CN1; NMeF = CN[C@@H](Cc1ccccc1)C(=O)O; NMeL = CN[C@@H](CC(C)C)C(=O)O; NMehSer = CN[C@@H](CCO)C(=O)O; Thr(3ξ) = CC(O)[C@H](N)C(=O)O; NMeNle = CCCC[C@H](NC)C(=O)O; Pip = O=C(O)[C@@H]1CCCCN1; dPip = O=C(O)[C@H]1CCCCN1; hSer = N[C@@H](CCO)C(=O)O; NMeA = CN[C@@H](C)C(=O)O; Orn = NCCC[C@H](N)C(=O)O; dThz = O=C(O)[C@H]1CSCN1; Dab = NCC[C@H](N)C(=O)O; Dap = NC[C@H](N)C(=O)O; ξC = NC(CS)C(=O)O; Sar = CNCC(=O)O

target: T1, Human PD-L1/PD-1 (Homo sapiens, UniProt Q9NZQ7); experiment: HTRF Human PD-L1/PD-1 binding assay (PD-1-Ig/PD-L1-His); conditions: PD-L1-His 10 nM, PD-1-Ig 20 nM; class symbol; read-out: HTRF Human PD-L1/PD-1 Binding Assay IC50 Range
T1 construct: TVMV protease cleavage site (C); made in house; host or cells: HEK293T cells
Procedure, shortened: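 Compound preincubated 15 min with PD-L1-His (10 nM final), then PD-1-Ig (20 nM final) added for 15 min in dPBS with 0.1% BSA and 0.05% Tween-20. Detection by Eu-cryptate anti-Ig (1 nM) and APC anti-His (20 nM) after 30 min; 665/620 nm HTRF ratio. Proteins expressed in HEK293T.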

T1 sequence (Q9NZQ7 with tags, fused parts or gaps): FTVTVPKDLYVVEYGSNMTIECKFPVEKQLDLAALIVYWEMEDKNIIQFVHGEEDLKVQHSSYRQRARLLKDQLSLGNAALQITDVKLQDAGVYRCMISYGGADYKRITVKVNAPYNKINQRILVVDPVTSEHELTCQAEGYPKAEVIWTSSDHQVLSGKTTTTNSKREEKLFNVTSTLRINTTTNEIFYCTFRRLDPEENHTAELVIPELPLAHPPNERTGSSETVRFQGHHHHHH

IC50 [nM] | SMILES
1 to 9.9 | CCCC[C@H]1C(=O)N2CCC[C@@H]2C(=O)N[C@@H](CC(=O)O)C(=O)N[C@@H](C(C)C)C(=O)N(C)[C@@H](Cc2ccccc2)C(=O)N[C@@H](Cc2ccc(O)cc2)C(=O)N2CSC[C@@H]2C(=O)N[C@@H](Cc2c[nH]c3ccccc23)C(=O)N[C@@H](Cc2ccc(O)cc2)C(=O)N[C@@H](CC(C)C)C(=O)N[C@H](C(=O)NCC(N)=O)CSCC(=O)N[C@@H](Cc2cc(F)c(F)c(F)c2)C(=O)N(C)[C@@H](Cc2ccccc2)C(=O)N1C [Example 10092] ({CH2CO}-[Phe(3,4,5-F3)][NMeF][NMeNle][dP]DV[NMeF]Y[dThz]WYLCG-NH2; thioether N-13)
1 to 9.9 | CCCC[C@H]1C(=O)N2C[C@H](O)C[C@@H]2C(=O)N2C[C@H](N)C[C@H]2C(=O)N[C@@H](C(C)C)C(=O)N(C)[C@@H](Cc2ccccc2)C(=O)N[C@@H](CCC(=O)O)C(=O)N2CCCC[C@@H]2C(=O)N[C@@H](Cc2c[nH]c3ccccc23)C(=O)N[C@@H](Cc2ccc(O)cc2)C(=O)N[C@@H](CC(C)C)C(=O)N[C@H](C(=O)NCC(N)=O)CSCC(=O)N[C@@H](Cc2cc(F)c(F)c(F)c2)C(=O)N(C)[C@@H](Cc2ccccc2)C(=O)N1C [Example 3227] ({CH2CO}-[Phe(3,4,5-F3)][NMeF][NMeNle][d(cisHyp)][Pro(4R-NH2)]V[NMeF]E[dPip]WYLCG-NH2; thioether N-13)
1 to 9.9 | CCCC[C@H]1C(=O)N(C)[C@@H](CCCC)C(=O)N[C@@H](CCC(=O)O)C(=O)N[C@H](C(=O)NCC(N)=O)CSCC(=O)N[C@@H](Cc2ccc(O)cc2)C(=O)N(C)[C@@H](C)C(=O)N[C@@H](CC(=O)O)C(=O)N2CCC[C@H]2C(=O)N[C@@H](CN)C(=O)N[C@@H](CC(C)C)C(=O)N2C[C@H](O)C[C@H]2C(=O)N[C@@H](Cc2c[nH]c3ccccc23)C(=O)N[C@@H](CCN)C(=O)N[C@@H](Cc2c[nH]c3ccccc23)C(=O)N1C [Example 5162] ({CH2CO}-Y[NMeA]DP[Dap]L[Hyp]W[Dab]W[NMeNle][NMeNle]ECG-NH2; thioether N-14)
1000 to 10000 | CCCC[C@H]1C(=O)N[C@@H](CC(N)=O)C(=O)N2CCC[C@H]2C(=O)N[C@@H](CO)C(=O)N[C@@H](CCO)C(=O)N2CCC[C@H]2C(=O)N[C@@H](Cc2c[nH]c3ccccc23)C(=O)N[C@@H](CCCN)C(=O)N[C@@H](Cc2c[nH]c3ccccc23)C(=O)N(C)[C@@H](C)C(=O)N(C)CC(=O)N[C@@H](CCCNC(=N)N)C(=O)NC(C(=O)NCC(N)=O)CSCC(=O)N[C@@H](Cc2ccc(O)cc2)C(=O)N1C (stereo partly drawn) [Example 10204] ({CH2CO}-Y[NMeNle]NPS[hSer]PW[Orn]W[NMeA][Sar]R[ξC]G-NH2; thioether N-14)
1000 to 10000 | CCCC[C@H]1C(=O)N[C@@H](CC(N)=O)C(=O)N2CCC[C@H]2C(=O)N[C@@H](CO)C(=O)N[C@@H](CCO)C(=O)N2C[C@H](O)C[C@H]2C(=O)N[C@@H](Cc2c[nH]c3ccccc23)C(=O)N[C@@H](CCCN)C(=O)N[C@@H](Cc2c[nH]c3ccccc23)C(=O)N(C)[C@@H](C)C(=O)N(C)CC(=O)N[C@@H](CCCNC(=N)N)C(=O)NC(C(=O)NCC(N)=O)CSCC(=O)N[C@@H](Cc2ccc(O)cc2)C(=O)N1C (stereo partly drawn) [Example 10207] ({CH2CO}-Y[NMeNle]NPS[hSer][Hyp]W[Orn]W[NMeA][Sar]R[ξC]G-NH2; thioether N-14)
1 to 9.9 | CCCC[C@H]1C(=O)N(C)[C@@H](CCCC)C(=O)N[C@@H](CCCN)C(=O)N[C@H](C(=O)NCC(N)=O)CSCC(=O)N[C@@H](Cc2ccc(OC)cc2)C(=O)N(C)[C@@H](C)C(=O)N[C@@H](CC(N)=O)C(=O)N2CCC[C@H]2C(=O)N[C@@H](CN)C(=O)N[C@@H](CCC(=O)O)C(=O)N2C[C@H](O)C[C@H]2C(=O)N[C@@H](Cc2c[nH]c3ccccc23)C(=O)N[C@@H](CCN)C(=O)N[C@@H](Cc2c[nH]c3ccccc23)C(=O)N1C [Example 7091] ({CH2CO}-Y(Me)[NMeA]NP[Dap]E[Hyp]W[Dab]W[NMeNle][NMeNle][Orn]CG-NH2; thioether N-14)
1 to 9.9 | CCCC[C@H]1C(=O)N(C)[C@@H](CCCC)C(=O)N[C@@H](CC(C)C)C(=O)N[C@H](C(N)=O)CSCC(=O)N[C@@H](Cc2ccc(O)cc2)C(=O)N(C)[C@@H](C)C(=O)N[C@@H](CC(N)=O)C(=O)N2CCC[C@H]2C(=O)N[C@@H](CN)C(=O)N[C@@H](CC(C)C)C(=O)N2C[C@H](O)C[C@H]2C(=O)N[C@@H]([C@@H](C)c2c[nH]c3ccccc23)C(=O)N[C@@H](CO)C(=O)N[C@@H](Cc2c[nH]c3ccccc23)C(=O)N1C [Example 10532] ({CH2CO}-Y[NMeA]NP[Dap]L[Hyp][Trp(βS-Me)]SW[NMeNle][NMeNle]LC-NH2; thioether N-14)
1 to 9.9 | CCCC[C@H]1C(=O)N(C)[C@@H](CCOC)C(=O)N[C@@H](CO)C(=O)N[C@H](C(=O)NCC(N)=O)CSCC(=O)N[C@@H](Cc2ccc(O)cc2)C(=O)N(C)[C@@H](C)C(=O)N[C@@H](CC(N)=O)C(=O)N2CCC[C@H]2C(=O)N[C@@H](Cc2c[nH]cn2)C(=O)N[C@@H](CCC(N)=O)C(=O)N2C[C@H](O)C[C@H]2C(=O)N[C@@H](Cc2c[nH]c3ccccc23)C(=O)N[C@@H](CO)C(=O)N[C@@H](Cc2c[nH]c3ccccc23)C(=O)N1C [Example 10144] ({CH2CO}-Y[NMeA]NPHQ[Hyp]WSW[NMeNle][NMehSer](Me)SCG-NH2; thioether N-14)
10 to 99.9 | CCCC[C@H]1C(=O)N(C)[C@@H](CCCC)C(=O)N[C@@H](CCCNC(=N)N)C(=O)NC(C(=O)NCC(N)=O)CSCC(=O)N[C@@H](Cc2ccc(O)cc2)C(=O)N(C)[C@@H](C)C(=O)N[C@@H](CC(N)=O)C(=O)N2CCC[C@H]2C(=O)N[C@@H](CO)C(=O)N[C@@H](CO)C(=O)N2CCC[C@H]2C(=O)N[C@@H](Cc2c[nH]c3ccccc23)C(=O)N[C@@H](CO)C(=O)N[C@@H](Cc2c[nH]c3ccccc23)C(=O)N1C (stereo partly drawn) [Example 10017] ({CH2CO}-Y[NMeA]NPSSPWSW[NMeNle][NMeNle]R[ξC]G-NH2; thioether N-14)
10 to 99.9 | CCCC[C@H]1C(=O)N(C)[C@@H](CCOC)C(=O)N[C@@H](CC(C)C)C(=O)N[C@H](C(=O)NCC(N)=O)CSCC(=O)N[C@@H](Cc2ccc(O)cc2)C(=O)N(C)[C@@H](C)C(=O)N[C@@H](CCN)C(=O)N2CCC[C@H]2C(=O)N[C@@H](Cc2c[nH]cn2)C(=O)N[C@@H](CCC(=O)O)C(=O)N2C[C@H](O)C[C@H]2C(=O)N[C@@H](Cc2c[nH]c3ccccc23)C(=O)N[C@@H](CO)C(=O)N[C@@H](Cc2c[nH]c3ccccc23)C(=O)N1C [Example 10146] ({CH2CO}-Y[NMeA][Dab]PHE[Hyp]WSW[NMeNle][NMehSer](Me)LCG-NH2; thioether N-14)
1 to 9.9 | CCCC[C@H]1C(=O)N(C)[C@@H](CCCC)C(=O)N[C@@H](C(C)O)C(=O)N[C@H](C(=O)NCC(N)=O)CSCC(=O)N[C@@H](Cc2ccc(OC)cc2)C(=O)N(C)[C@@H](C)C(=O)N[C@@H](CC(N)=O)C(=O)N2CCC[C@H]2C(=O)N[C@@H](Cc2c[nH]cn2)C(=O)N[C@@H](CCC(N)=O)C(=O)N2C[C@H](O)C[C@H]2C(=O)N[C@@H](Cc2c[nH]c3ccccc23)C(=O)N[C@@H](CO)C(=O)N[C@@H](Cc2c[nH]c3ccccc23)C(=O)N1C (stereo partly drawn) [Example 7139] ({CH2CO}-Y(Me)[NMeA]NPHQ[Hyp]WSW[NMeNle][NMeNle][Thr(3ξ)]CG-NH2; thioether N-14)
100 to 990 | CCCC[C@H]1C(=O)N2CCC[C@@H]2C(=O)N[C@@H](CC(=O)O)C(=O)N[C@@H](C(C)C)C(=O)N(C)[C@@H](CC(C)C)C(=O)N[C@@H](Cc2ccc(O)cc2)C(=O)N2CCC[C@@H]2C(=O)N[C@@H](Cc2c[nH]c3ccccc23)C(=O)N[C@@H](Cc2ccc(O)cc2)C(=O)N[C@@H](CCCN)C(=O)N[C@H](C(=O)NCC(N)=O)CSCC(=O)N[C@@H](Cc2ccc(F)cc2)C(=O)N(C)[C@@H](Cc2ccccc2)C(=O)N1C [Example 9251] ({CH2CO}-[Phe(4-F)][NMeF][NMeNle][dP]DV[NMeL]Y[dP]WY[Orn]CG-NH2; thioether N-13)
1 to 9.9 | CCCC[C@H]1C(=O)N(C)[C@@H](CCCC)C(=O)N[C@@H](CCC(=O)O)C(=O)N[C@H](C(=O)NCC(N)=O)CSCC(=O)N[C@@H](Cc2ccc(O)cc2)C(=O)N(C)[C@@H](C)C(=O)N[C@@H](CC(N)=O)C(=O)N2CCC[C@H]2C(=O)N[C@@H](Cc2cnc[nH]2)C(=O)N[C@@H](CCC(N)=O)C(=O)N2C[C@H](O)C[C@H]2C(=O)N[C@@H](Cc2c[nH]c3ccccc23)C(=O)N[C@@H](CCC(=O)O)C(=O)N[C@@H](Cc2c[nH]c3ccccc23)C(=O)N1C [Example 5186] ({CH2CO}-Y[NMeA]NPHQ[Hyp]WEW[NMeNle][NMeNle]ECG-NH2; thioether N-14)
10 to 99.9 | CCCC[C@H]1C(=O)N(C)[C@@H](CCCC)C(=O)N[C@@H](C)C(=O)N[C@H](C(=O)NCC(N)=O)CSCC(=O)N[C@@H](Cc2ccc(O)cc2)C(=O)N(C)[C@@H](C)C(=O)N[C@@H](CCC(=O)O)C(=O)N2CCC[C@H]2C(=O)N[C@@H](Cc2cnc[nH]2)C(=O)N[C@@H](CCN)C(=O)N2C[C@H](O)C[C@H]2C(=O)N[C@@H](Cc2c[nH]c3ccccc23)C(=O)N[C@@H](CO)C(=O)N[C@@H](Cc2c[nH]c3ccccc23)C(=O)N1C [Example 1248] ({CH2CO}-Y[NMeA]EPH[Dab][Hyp]WSW[NMeNle][NMeNle]ACG-NH2; thioether N-14)
1 to 9.9 | CCCC[C@H]1C(=O)N(C)[C@@H](CCCC)C(=O)N[C@@H](C)C(=O)N[C@H](C(=O)NCC(N)=O)CSCC(=O)N[C@@H](Cc2ccc(O)cc2)C(=O)N2CCCC[C@H]2C(=O)N[C@@H](CC(=O)O)C(=O)N2CCC[C@H]2C(=O)N[C@@H](CN)C(=O)N[C@@H](CCC(N)=O)C(=O)N2C[C@H](O)C[C@H]2C(=O)N[C@@H](Cc2c[nH]c3ccccc23)C(=O)N[C@@H](CO)C(=O)N[C@@H](Cc2csc3ccccc23)C(=O)N1C [Example 1507] ({CH2CO}-Y[Pip]DP[Dap]Q[Hyp]WS[Bta][NMeNle][NMeNle]ACG-NH2; thioether N-14)
